How the values were obtained:
[1] = Plasma stability assay, mouse plasma; format: in vitro ADME; conditions: 37° C., Method 1 (5 μM)
Protocol: Exemplary compounds of the disclosure are stable upon incubation in mouse plasma. Stability is expressed as a % remaining after 120 minutes. The experimental methods and results (Table 2) are provided hereinafter.
Plasma Stability Assay, Method 1
From stock solution of compound in 10 mM DMSO, a working solution of 1 mM is prepared by diluting the compound in DMSO. To 398 μL of plasma pre-warmed at 37° C. for 15 minutes), 2 μL of working solution of compound is added, resulting in a final concentration of 5 μM (0.5% DMSO) for the compound. The sample is then incubated at 37° C. Aliquot is withdrawn at specified time-points (0, 15, 30, 60 and 120 mins). The reaction is stopped by addition of 450 μL cold acetonitrile containing internal standard (IS). […] Aliquots of the supernatant is analysed using LC-MS/MS. The percent remaining of the compound at each time point is calculated with respect to the control sample (0 min time-point).
Plasma Stability Assay, Method 2
A working solution of compound (500 μM) is prepared in DMSO (100%). To 735 μL of plasma, 15 μL of working solution of compound is added—resulting in a final concentration of 10 μM (2% DMSO) for the compound. […] The samples are centrifuged and the supernatants analyzed using LC-MS/MS. The percent remaining of the compound at each time point is calculated with respect to the control sample (0 min time-point).

[2] = UUO model: serum urea; format: in vivo, rat; conditions: UUO rats; 30 mg/kg; compared with sham and UUO + vehicle
From the text: (§1) Serum for blood biochemistry analysis was collected into centrifuge tubes without coagulant four hours after final dosing. Blood plasma samples from group 3 was collected into tubes with K2EDTA four hours after final dosing. At the conclusion of the study (end of the 14-day period), animals were euthanized. Kidney tissue was collected four hours after final dosing. Ligated side kidney was divided into three copies 1/3 fix into 10% formalin for H&E analysis, 1/3 into RNA for PCR analysis of tissue biomarkers Col1a1, TGF-b1, MCP-1, IL-1b, IL-6, IL-17, TNF-a, and Timp1, and 1/3 for hydroxyproline assay analyzed by ELISA. RNA was extracted from tissue using the RNeasy mini kit (Qiagen). RNA concentration was measured using a NanoDrop One Spectrophotometer (ThermoFisher) and converted to cDNA using a High-Capacity RNA-to-cDNA kit (Invitrogen). RT-PCR was performed to measure levels of mRNA of different targets using TaqMan® Gene Expression Master Mix and TaqMan® probe/primer sets on a QuantStudio 6 Real-Time PCR System (ThermoFisher). Fold change in target gene expression was determined using the ΔΔCt method.

[3] = tested on: CXCL10; experiment: Human PBMC assay, CXCL10 by ELISA (IFN-γ stimulation); format: cell-based
Protocol: The impact of Examples 23, 80, and 101 on IL-17A, IL-22, and CXCL10 levels was analyzed in cryopreserved human peripheral blood mononuclear cells (PBMC) by ELISA.
For IL-17A and IL-22 assays, Examples 23, 80, and 101 were serially diluted from 10 mM in DMSO and further diluted in assay media to 100× the required final concentration, of which, 2 μL was added per well to a round-bottom 96-well tissue culture plate where the final DMSO concentration per well was 0.1%. CD2, CD3, and CD28 antibody-coated beads from the T-cell activation/expansion kit (Miltenyi Biotec) were added to the PBMC at a bead-to-cell ratio of 1:2. The mixture of PBMCs and beads were seeded into the wells of the round-bottom 96-well plate at a concentration of 2×10^5 cells/well in a total volume of 200 μL. The cells were cultured for 72 hours at 37° C. and 5% CO2 and then supernatants were collected and IL-17A and IL-22 levels were measured by ELISA. For the CXCL10 assay, Examples 23, 80, and 101 were serially diluted from 10 mM in DMSO and further diluted in assay media to 100× the required final concentration, of which 2 μL was added per well to a 96-well tissue culture plate. The final compound concentration ranged from 30,000 nM to 0.005 nM and the final DMSO concentration per well was 0.3%. PBMCs were seeded at approximately […] in the wells of the 96-well tissue culture plate in a total volume of 190 μL. The plate was incubated for 1 hour at 37° C. and 5% CO2. The cells were then stimulated with IFN-γ (15 ng/mL final concentration) in a volume of 10 μL. The cells were then cultured for 24 hours at 37° C. and 5% CO2. The supernatant was collected and CXCL10 levels were measured by ELISA.

[4] = Sprague-Dawley rat pharmacokinetics (IV and PO); format: in vivo; conditions: rat, plasma; male Sprague-Dawley rats, PO 5 mg/kg (IV 1 mg/kg), cassette mode, Method 1; read-out: PO F (%)
Procedure, shortened: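 Male Sprague-Dawley rats (2 per arm) dosed in cassette (up to 5 compounds) at 1 mg/kg IV and 5 mg/kg PO, formulated in 5% DMSO/40% PEG-400/55% water. Plasma sampled over time, acetonitrile-precipitated with internal standard, and quantified by LC/MS/MS against matrix-matched standards.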

[5] = tested on: Col1a1, TGF-b1, MCP-1, IL-1b, IL-6, IL-17, TNF-a, and Timp1; experiment: UUO model: kidney tissue biomarker mRNA by RT-PCR; format: in vivo, rat; conditions: UUO rats; 30 mg/kg
From the text: as §1

CNC(=O)c1[nH]c(C(=O)NC2CCC2)cc1O[C@@H](C)c1ccccc1 [Example 101, N^5-cyclobutyl-N^2-methyl-3-(1-phenylethoxy)-1H-pyrrole-2,5-dicarboxamide]
Plasma Stability (% remaining at 120 minutes) Mouse [1]: >99% | serum urea levels [2]: No significant differences | selectivity to induction of CXCL10 relative to IL-17A and IL-22 [3]: showed selectivity | IC50 for CXCL-10 relative to GSK620 ([3]; IFN-γ, 24 hours, ELISA): substantially lower 1050 | bioavailability [4]: 66% | expression of IL-17 relative to UUO + vehicle [5]: limited effect | expression of TNF-a relative to UUO + vehicle [5]: limited effect | tissue RNA level of Col1a1 relative to UUO + vehicle [5]: reduced | tissue RNA level of IL-1b relative to UUO + vehicle [5]: reduced | tissue RNA level of IL-6 relative to UUO + vehicle [5]: reduced | tissue RNA level of MCP-1 relative to UUO + vehicle [5]: reduced | tissue RNA level of TGB-b1 relative to UUO + vehicle [5]: reduced | tissue RNA level of Timp1 relative to UUO + vehicle [5]: reduced

Reference: US20260000642A1 (Tay Therapeutics Limited, priority 2022, published 2026)
